In US20260041620A1, “NOVEL AMINO ACID BASED SALTS, COMPOSITIONS AND METHODS FOR TREATING SKIN AND IMPROVING SKIN REJUVENATION AND LONGEVITY” (Sytheon Ltd, priority 2023, published 2026):
Read-outs that look alike come from different tables or passages of the source.

Tests used:
[1] = target: HDAC 5 (Homo sapiens, UniProt Q9UQL6)
Protocol: Test materials were stored at room temperature and stock solutions were prepared at 20 mg/ml in DMSO. Further dilutions were made in sterile distilled water immediately before being added to the reaction mixture containing a substrate, and the reaction was triggered by the addition of purified HDAC enzymes, Double distilled water was the negative control and trichostatin (1.5 ug/ml) was used as a positive control for validation of each study. The test procedure was as directed in the assay kits. The products of the reactions were measured by fluorometry at ex/em 350/450 nm using multi-well plate fluorometer Cytofluor 4000 (Applied Biosystem, Foster City, CA) or using SpectraMax i3× Multi-Mode Detection Platform from Molecular Devices (Sunnyvale, CA).
Statistical significance was assessed with a two-tail Student test. Deviations of ≤20% as compared to water control with p values below 0.05 were considered statistically significant.

[2] = target: T1, COX-2 (Homo sapiens, UniProt P35354)
T1 sequence (P35354 18-604): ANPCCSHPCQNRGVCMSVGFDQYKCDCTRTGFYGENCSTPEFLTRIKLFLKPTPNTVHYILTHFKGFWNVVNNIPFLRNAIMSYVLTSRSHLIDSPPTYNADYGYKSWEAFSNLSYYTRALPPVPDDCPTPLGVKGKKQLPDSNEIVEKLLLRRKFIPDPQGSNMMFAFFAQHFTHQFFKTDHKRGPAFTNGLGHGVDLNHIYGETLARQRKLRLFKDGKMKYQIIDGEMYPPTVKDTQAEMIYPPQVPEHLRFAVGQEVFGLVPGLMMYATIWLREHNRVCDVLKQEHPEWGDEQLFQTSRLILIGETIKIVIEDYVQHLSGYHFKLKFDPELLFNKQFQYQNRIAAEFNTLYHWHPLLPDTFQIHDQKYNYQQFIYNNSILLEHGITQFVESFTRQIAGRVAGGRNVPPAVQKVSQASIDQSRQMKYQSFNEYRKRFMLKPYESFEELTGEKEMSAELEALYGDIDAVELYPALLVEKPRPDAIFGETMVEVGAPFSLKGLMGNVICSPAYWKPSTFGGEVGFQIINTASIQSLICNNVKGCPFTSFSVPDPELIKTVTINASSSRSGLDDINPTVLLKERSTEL
Protocol: A 0.1 gram sample of each test material was dissolved in 1 mL propanediol make a stock solution, each of which was subject to 1 to 2 serial dilutions using buffer for use in determining the IC50 Testing and analysis was performed in accordance with the protocol of the COX-2 Kt (Cayman Catalog #701080) (Cayman catalog #62160).

[3] = test system: EpiDermFT (Mattek full thickness) dermal substitutes; conditions: versus control
Protocol: The experiments were performed using EpiDermFT (Mattek full thickness) dermal substitutes. Sequencing data was generated by Azenta Life Sciences (HiSeq 2×150 bp) and analyses performed using raw FastQ files provided by Azenta.

[4] = test system: NFκB; assay: NF-κB luminance reporter assay, TNFα activated; type: cell-based, Murine
Source text: NFκB expression was quantified from the luminance signals released from cells treated with the test products and the control (untreated).

[5] = test system: Prolidase (PEPD); assay: Prolidase Assay (ELISA); type: cell-based; conditions: for Prolidase: untreated 74 ± 3
Protocol: A series of standards was prepared and 50 μl aliquots of the standards and the test samples identified in Table 6 were added to wells of a prolidase ELISA plate, followed by the addition of 100 μl […] conjugated anti-prolidase antibody. The plate was then incubated at 37° C. for 1 hour, Following incubation, the ELISA plate was washed and 100 μl of substrate solution was added to each well and the well-plate incubated for 10-15 minutes at room temperature to allow the color generation reaction to occur. At the end of the color generation reaction, 50 μl of stop solution (1 N sulfuric acid) was added to each well and the plates read at 460 nm using a plate reader.
(§1) To quantify the amount of each substance present, a standard curve was generated using known concentrations of each substance. A regression analysis was performed to establish the line that best fit those data points. Absorbance values for the test materials and untreated samples were used to estimate the amount of each substance present in each sample. Treatment means were compared using ANOVA, with an […] per treatment. Statistical significance was set at p≤0.05.

[6] = test system: Type IV Collagen; assay: Type IV Collagen Assay (ELISA, fibroblast culture medium); type: cell-based, human; conditions: for Type IV Collagen C-Peptide: 48 hours, untreated 7.76 ± 0.92
Protocol: (§2) In the study, human neonatal fibroblasts were seeded into the individual wells of a 48-well plate in 0.25 ml of Fibroblasts Growth Media (FGM) and incubated overnight at 37±2° C. and a 5±1% CO2 atmosphere. On the following day the media was removed via aspiration to eliminate non-adherent cells and replaced with 0.5 ml of fresh FGM. The cells were grown until confluent, with a media change every 48 to 72 hours. Upon reaching confluency the cells were treated for 24 hours with Dulbecco's Modified Eagle's medium (DMED) supplemented with 1.5% Fetal Bovine Serum (FBS) to wash out any effects from the growth factors included in the normal culture media. After this 24-hour wash out period the cells were treated with the test materials at the specified concentrations dissolved in FGM with 1.5% FBS. Sodium ascorbate (10 ug/ml) was used as a positive control. Untreated cells (negative controls) only received DMEM with […], The cells were incubated for 48 hours and at the end of the incubation period, cell culture medium was collected and either stored frozen (−75 C) or assayed immediately. Materials were tested in triplicate.
A series of type IV collagen peptide standards was prepared ranging from 0 ng/ml to 640 ng/ml. 100 μl of each standard or of each of the collected tissue culture media were added to the wells of type IV collagen ELISA plates. The plates were then incubated at 37° C. for 1 hour. After incubation, the ELISA plates were then washed twice with wash buffer, followed by the addition of 100 μl of detection antibody solution. The ELISA plates were then incubated for 1 hour at 37° C. Following incubation, the ELISA plates were washed with wash solution followed by the addition of 100 μl HEP conjugate solution and incubated at 37° C. for 30 minutes. Following the latter incubation, the ELISA plates were again washed and 100 μl of the substrate solution was added to each well and the well plates incubated for 10-30 minutes at room temperature to allow the color generation reaction to occur. At the end of the color generation reaction 100 μl of stop solution (1 N sulfuric acid) was added to each well and the plates read at 460 nm using a plate reader.
as §1

[7] = test system: Type I Collagen; assay: Type I Collagen Assay (ELISA, fibroblast culture medium); type: cell-based, human; conditions: for Type I Collagen C-Peptide: 48 hours, untreated 1255 ± 83
Protocol: as §2
A series of type I collagen peptide standards was prepared ranging from 0 ng/ml to 640 ng/ml. An ELISA microplate was prepared by removing any unneeded strips from the plate frame followed by the addition of 100 μl of peroxidase labelled anti-procollagen type I-C peptide antibody to each well used in the assay. A 20 μl sample of each of the collected tissue culture media or a standard was then added to appropriate wells and the microplate covered and allowed to incubate for 3±0.25 hours at 37 C. Following incubation, the wells were aspirated and washed three times with 400 μl of wash buffer. After the last wash was remove 100 μl of peroxidase substrate solution (hydrogen peroxide+tetramethylbenzidine as a chromogen) was added to each well and the plate incubated for 15±4 minutes at room temperature. Following this incubation, 100 μl of stop solution (1 N sulfuric acid) was added to each well and the plate read using a microplate reader at 450 nm.
as §1

[8] = concentrations as high as 100 μg/ml

Chain of HDAC 5 (Q9UQL6 whole entry): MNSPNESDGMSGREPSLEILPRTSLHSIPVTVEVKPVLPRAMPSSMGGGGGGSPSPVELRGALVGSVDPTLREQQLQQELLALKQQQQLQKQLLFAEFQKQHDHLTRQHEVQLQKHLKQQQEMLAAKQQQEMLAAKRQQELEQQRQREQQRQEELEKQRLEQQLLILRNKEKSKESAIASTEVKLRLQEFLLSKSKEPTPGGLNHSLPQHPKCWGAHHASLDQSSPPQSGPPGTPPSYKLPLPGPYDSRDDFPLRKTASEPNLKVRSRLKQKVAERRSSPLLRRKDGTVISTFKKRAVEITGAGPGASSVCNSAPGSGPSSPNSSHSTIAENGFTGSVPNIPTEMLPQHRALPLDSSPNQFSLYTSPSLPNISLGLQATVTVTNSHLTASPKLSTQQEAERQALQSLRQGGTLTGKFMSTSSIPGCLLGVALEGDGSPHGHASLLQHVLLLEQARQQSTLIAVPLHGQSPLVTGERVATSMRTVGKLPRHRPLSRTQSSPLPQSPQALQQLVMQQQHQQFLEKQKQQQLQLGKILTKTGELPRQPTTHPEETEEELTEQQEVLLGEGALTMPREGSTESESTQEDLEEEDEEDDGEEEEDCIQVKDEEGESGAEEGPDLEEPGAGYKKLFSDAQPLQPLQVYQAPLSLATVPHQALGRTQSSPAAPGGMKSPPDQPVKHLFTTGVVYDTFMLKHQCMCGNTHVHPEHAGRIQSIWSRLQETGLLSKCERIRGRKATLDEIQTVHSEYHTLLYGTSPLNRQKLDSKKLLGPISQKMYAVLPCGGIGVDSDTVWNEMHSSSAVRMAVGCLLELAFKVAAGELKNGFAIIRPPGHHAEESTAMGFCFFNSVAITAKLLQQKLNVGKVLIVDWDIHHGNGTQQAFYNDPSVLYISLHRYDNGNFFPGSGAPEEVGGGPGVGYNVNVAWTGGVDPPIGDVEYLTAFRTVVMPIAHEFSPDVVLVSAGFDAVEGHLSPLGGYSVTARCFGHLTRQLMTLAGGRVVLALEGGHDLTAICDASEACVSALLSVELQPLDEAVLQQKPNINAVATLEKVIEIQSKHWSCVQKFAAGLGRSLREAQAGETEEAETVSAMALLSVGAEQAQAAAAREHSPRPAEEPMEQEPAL

Row | Molecule | HDAC 5 activity, % of water-treated controls ([1]; 25 ug/ml) | HDAC 5 activity, % of water-treated controls ([1]; 50 ug/ml) | HDAC 5 activity, % of water-treated controls ([1]; 100 ug/ml) | HDAC 5 activity, % of water-treated controls ([1]; 200 ug/ml) | COX-2 IC50 [2] | expression of FABP3 [3] | expression of late differentiation marker gene FLG [3] | expression of late differentiation marker gene IVL [3] | expression of late differentiation marker gene LOR [3] | expression of late differentiation marker gene SPINK5 [3] | expression of late differentiation marker gene TGM1 [3] | Prolidase ([5]; 10 μg/ml) | Prolidase ([5]; 20 μg/ml) | Prolidase ([5]; 30 μg/ml) | Prolidase ([5]; 60 μg/ml) | Type IV Collagen C-Peptide ([6]; 10 μg/ml) | Type IV Collagen C-Peptide ([6]; 30 μg/ml) | Type I Collagen C-Peptide ([7]; 10 μg/ml) | Type I Collagen C-Peptide ([7]; 30 μg/ml) | other results
1 | CCCC(=O)NCCCCC(NC(=O)CCC)C(=O)[O-].CCCC(=O)NCCCCC(NC(=O)CCC)C(=O)[O-].[Ca+2] (stereo not shown) [Ca di-(di-n-butyryl lysinate), calcium di-(di-n-butyryl lysinate)] | 128% | 123% | 117% | 88% | 111.0 µg/mL | repressed | increased expression | increased expression | increased expression | increased expression | increased expression |  |  |  |  |  |  |  |  | HDAC 5 activity, % of water-treated controls ([1]; 5 ug/ml): 144%; activity of late cornified envelop (LCE2D) [3]: strongly increased; activity of late cornified envelope (LCE3A) [3]: strongly increased
2 | CCCC(=O)[O-].[Na+] [Sodium butyrate, reference compound] |  | 38% | 26% | 15% |  |  |  |  |  |  |  | 54 ± 3 ng/mL | 47 ± 6 ng/mL | 37 ± 5 ng/mL | 33 ± 5 ng/mL | 9.29 ± 0.70 ng/mL | 7.61 ± 0.70 ng/mL | 1445 ± 168 ng/mL | 1262 ± 95 ng/mL | HDAC 5 activity, % of water-treated controls ([1]; 400 ug/ml): 11%; IC50 ([4]; Mus musculus, C2C12 reporter cells, TNFα as activator, read-out: IC50 in inhibiting NFκB): 7700 µg/mL; decrease of prolidase vs control ([5]; 60 μg/ml): 50%; Type IV Collagen C-Peptide ([6]; 60 μg/ml): 11.88 ± 1.37 ng/mL; Type IV Collagen C-Peptide ([6]; 100 μg/ml): 12.80 ± 1.83 ng/mL; Collagen IV boosting activity [6, 8]: didn't show any; Type I Collagen C-Peptide ([7]; 60 μg/ml): 1196 ± 175 ng/mL; Type I Collagen C-Peptide ([7]; 100 μg/ml): 1277 ± 216 ng/mL; Collagen I boosting activity [7, 8]: didn't show any
3 | CCCC(=O)NCCCC[C@H](NC(=O)CCC)C(=O)[O-].CCCC(=O)NCCCC[C@H](NC(=O)CCC)C(=O)[O-].[Zn+2] [Zn di-(di-n-butyryl lysinate), Zinc di-(di-n-butyryl lysinate)] | 89% | 65% | 33% | 17% | 82.3 µg/mL | repressed | increased expression | increased expression | increased expression | increased expression | increased expression | 66 ± 4 ng/mL | 104 ± 5 ng/mL | 115 ± 8 ng/mL | 145 ± 5 ng/mL | 13.41 ± 1.40 ng/mL | 26.98 ± 1.37 ng/mL | 1328 ± 48 ng/mL | 1958 ± 125 ng/mL | IC50 in inhibiting NFκB ([4]; C2C12 reporter cells, TNFα as activator): 70.4 µg/mL; fold more effective than Na butyrate in inhibiting NFκB ([4]; ratio of IC50 values): about 110 fold; increase of prolidase vs control ([5]; 60 μg/ml): 50%; boosting of Collagen IV versus control ([6]; 20 μg/ml): ~250%; Type IV Collagen C-Peptide ([6]; 20 μg/ml): 21.19 ± 1.47 ng/mL; boosting of Collagen IV versus control ([6]; 30 μg/ml): ~320%; activity of S100 calcium binding protein P (S100P) [3]: strongly increased; activity of late cornified envelope 3D (LCE3D) [3]: strongly increased; activity of late cornified envelope 3E (LCE3E) [3]: strongly increased; activity of small protein reach repeat (SPRR28) [3]: strongly increased; expression of early differentiation marker gene DSC1 [3]: increasing the expression; expression of early differentiation marker gene KRT1 [3]: increasing the expression; expression of early differentiation marker gene KRT10 [3]: increasing the expression; Type I Collagen C-Peptide ([7]; 20 μg/ml): 1541 ± 94 ng/mL; boost of Collagen I vs control ([7]; 30 μg/ml): ~50%
4 | CCCC(=O)N[C@@H](CC(C)C)C(=O)[O-].CCCC(=O)N[C@@H](CC(C)C)C(=O)[O-].[Zn+2] [Zn di-(n-butyryl leucinate), Zinc di-(n-butyryl leucinate)] | 128% | 91% | 50% | 26% |  |  |  |  |  |  |  |  |  |  |  |  |  |  |  | 
5 | Zinc Di-lysinate [Zn dilysinate] | 73% | 52% | 31% | 14% |  |  |  |  |  |  |  |  |  |  |  |  |  |  |  | 
